Source: ChEMBL document CHEMBL3352238, “Substituted indoles as selective protease activated receptor 4 (PAR-4) antagonists: Discovery and SAR of ML354” (Bioorg Med Chem Lett, 2014)

What was measured:
[1] = Intrinsic clearance in human; assay type: ADME, organism-based; conditions: in vivo
[2] = Intrinsic clearance in rat; assay type: ADME, organism-based; conditions: in vivo

Compound	CLint scaled [1] [mL/min/kg]	CLint scaled [2] [mL/min/kg]
CCOC(=O)c1ccc(-c2nn(Cc3ccccc3)c3ccccc23)cc1	75	1090
Cn1c(CO)c(-c2ccccc2)c2cc([N+](=O)[O-])ccc21	157	359
CCOC(=O)c1ccc(-c2cn(Cc3ccccc3)c3ccccc23)cc1	77	1160
